{
  "source": "patent US9789101B2",
  "about": "“Methods and compositions for treating microbial infection using pyrroloquinone” (HELPERBY THERAPEUTICS LIMITED, priority 2010, dated 2017)",
  "key": {"[1]": {"system": "log phase Staphylococcus aureus", "experiment": "Chequerboard analysis of HT00800059 and mupirocin against log phase Staphylococcus aureus", "assay_type": "cell-based, Staphylococcus aureus (Oxford)", "conditions": "for optical density reading at 405 nm: 24 hours", "description": "Staphylococcus aureus (Oxford); Gram positive; Reference strain. Log phase growth of […] sensitive Staphylococcus aureus (MSSA) was carried out as follows: • Bacteria were grown in 10 ml of nutrient broth (No. 2, (Oxoid)) overnight at 37° C. with continuous shaking at 120 rpm. […] The cultures were incubated at 37° C. with shaking for 1-2 hours to reach log CFU 6. Viability of the bacteria was estimated by colony forming unit (CFU) counts. From serial 10-fold dilutions of the experimental cultures, 100 μl samples were added to triplicate plates of nutrient agar plates (Oxoid) or blood agar plates (Oxoid). CFUs were counted after incubation of the plates at 37° C. for 24 hours. […] 290 μl of the cell suspension was added to each well of the 96 well plate, which was incubated at 37° C. for 24 hours. […] MIC determination: The optical density of the bacterial cells was read at 405 nm using a plate reader (Bio TEK). The MIC concentration was determined as the lowest concentration of drug which inhibits the bacterial growth. […] HT00800059 was dissolved in H2O to the stock solution 30.07 mg/ml. […] HT00800059 (30.7 mg/ml) was performed in a serial of 2 fold dilutions. This was followed by the addition of 280 μl of log phase culture at 10^6 CFU/ml to make the final concentrations of each drug as shown. In the above table, values in bold text are for HT00800059. Values in plain text are for mupirocin. The numbers shown in each well are μg/ml. Incubation of the compounds with the bacterial suspension was carried out for 24 hours. The kill effects of the drug combination were measured by optical density reading at 405 nm with a plate reader (Bio TEK). The fractional inhibitory concentration (FIC) index was carried out as following: (MIC of drug A, tested in combination)/(MIC of drug A, tested alone)+(MIC of drug B, tested in combination)/(MIC of drug B, tested alone). The interaction was defined as synergistic if the FIC index was <1, additive if the FIC index was =1 and antagonistic if the FIC index was >1."}, "[2]": {"system": "Mupirocin Resistant S. aureus (28 Passages)", "experiment": "Chequerboard analysis of HT00800059 and mupirocin against mupirocin resistant S. aureus (28 passages)", "assay_type": "cell-based, Staphylococcus aureus", "description": "(§1) Staphylococcus aureus (Oxford); Gram positive; Reference strain.\n(§2) Log phase growth of mupirocin resistant Staphylococcus aureus (MSSA) was carried out as follows: • Bacteria were grown in 10 ml of nutrient broth (No. 2, (Oxoid)) overnight at 37° C. with continuous shaking at 120 rpm. The overnight cultures were diluted 1000× with iso-sensitest broth. The cultures were incubated at 37° C. with shaking for 1-2 hours to reach log CFU 6. Viability of the bacteria was estimated by colony forming unit (CFU) counts. From serial 10-fold dilutions of the experimental cultures, 100 μl samples were added to triplicate plates of nutrient agar plates (Oxoid) or blood agar plates (Oxoid). CFUs were counted after incubation of the plates at 37° C. for 24 hours.\n(§3) Bacterial cultures: 10 μl of overnight cultures was added to 10 ml of fresh iso-sensitest broth to make the inoculation to 10^6 CFU/ml. 290 μl of the cell suspension was added to each well of the 96 well plate, which was incubated at 37° C. for 24 hours. 300 μl of iso-sensitest broth without bacterial cells were added to wells of the plate as a no bacterial control.\n(§4) MIC determination: The optical density of the bacterial cells was read at 405 nm using a plate reader (Bio TEK). The MIC concentration was determined as the lowest concentration of drug which inhibits the bacterial growth.\n(§5) Mupirocin was dissolved in DMSO to the stock concentration of 10 mg/ml. HT00800059 was dissolved in H2O to the stock solution 30.07 mg/ml.\n(§6) Mupirocin (10 mg/ml) was firstly diluted to 3.84 mg/ml, then further diluted in a serial of 2 fold dilutions. HT00800059 (30.7 mg/ml) was performed in a serial of 2 fold dilutions.\n(§7) This was followed by the addition of 280 μl of log phase culture at 10^6 CFU/ml to make the final concentrations of each drug as shown in Table 1 and Table 2.\n(§8) In the above table, values in bold text are for HT00800059. Values in plain text are for mupirocin. The numbers shown in each well are μg/ml.\n(§9) Incubation of the compounds with the bacterial suspension was carried out for 24 hours. The kill effects of the drug combination were measured by optical density reading at 405 nm with a plate reader (Bio TEK).\n(§10) The fractional inhibitory concentration (FIC) index was carried out as following: (MIC of drug A, tested in combination)/(MIC of drug A, tested alone)+(MIC of drug B, tested in combination)/(MIC of drug B, tested alone). The interaction was defined as synergistic if the FIC index was <1, additive if the FIC index was =1 and antagonistic if the FIC index was >1."}, "[3]": {"system": "Mupirocin Resistant S. aureus (24 Passages)", "experiment": "Chequerboard analysis of HT00800059 and mupirocin against mupirocin resistant S. aureus (24 passages)", "assay_type": "cell-based, Staphylococcus aureus", "description": "as §1, §2, §3, §4, §5, §6, §7, §8, §9, §10"}, "[4]": {"system": "log phase (i.e. multiplying) bacteria", "conditions": "J. Am. Pharm. Assoc. 1956; cited from earlier work"}, "[5]": {"conditions": "Staphylococcus aureus, read-out: alone MIC"}},
  "note": "Where a name gives a salt, the structure may show the parent alone.",
  "data": [
    {"smiles": "CCCCOc1ccc(C(=O)CCN2CCCCC2)cc1", "note": "[HT00800059, dyclonine (1-(4-Butoxyphenyl)-3-(1-piperidinyl)-1-propanone) hydrochloride]", "values": [
      {"measurement": "MIC", "setting": "[1]; [5]", "result": 512, "unit": "µg/mL"},
      {"measurement": "MIC before combination", "setting": "[1]; iso-sensitest broth", "result": 512, "unit": "µg/mL"},
      {"measurement": "MIC post combination", "setting": "[1]; iso-sensitest broth", "result": 64, "unit": "µg/mL"},
      {"measurement": "optical density reading at 405 nm", "setting": "[1]; iso-sensitest broth, HT00800059 1 μg/ml, mupirocin μg/ml: 1,0.5,0.25,0.125,0.0625,0.03125,0.015625,0", "result": 1.49},
      {"measurement": "optical density reading at 405 nm", "setting": "[1]; iso-sensitest broth, HT00800059 2 μg/ml, mupirocin μg/ml: 1,0.5,0.25,0.125,0.0625,0.03125,0.015625,0", "result": 1.47},
      {"measurement": "optical density reading at 405 nm", "setting": "[1]; iso-sensitest broth, HT00800059 4 μg/ml, mupirocin μg/ml: 1,0.5,0.25,0.125,0.0625,0.03125,0.015625,0", "result": 1.46},
      {"measurement": "optical density reading at 405 nm", "setting": "[1]; iso-sensitest broth, HT00800059 8 μg/ml, mupirocin μg/ml: 1,0.5,0.25,0.125,0.0625,0.03125,0.015625,0", "result": 1.47},
      {"measurement": "optical density reading at 405 nm", "setting": "[1]; iso-sensitest broth, HT00800059 16 μg/ml, mupirocin μg/ml: 1,0.5,0.25,0.125,0.0625,0.03125,0.015625,0", "result": 1.52},
      {"measurement": "optical density reading at 405 nm", "setting": "[1]; iso-sensitest broth, HT00800059 32 μg/ml, mupirocin μg/ml: 1,0.5,0.25,0.125,0.0625,0.03125,0.015625,0", "result": 1.55},
      {"measurement": "optical density reading at 405 nm", "setting": "[1]; iso-sensitest broth, HT00800059 64 μg/ml, mupirocin μg/ml: 1,0.5,0.25,0.125,0.0625,0.03125,0.015625,0", "result": 1.34},
      {"measurement": "optical density reading at 405 nm", "setting": "[1]; iso-sensitest broth, HT00800059 128 μg/ml, mupirocin μg/ml: 1,0.5,0.25,0.125,0.0625,0.03125,0.015625,0", "result": 1.20},
      {"measurement": "optical density reading at 405 nm", "setting": "[1]; iso-sensitest broth, HT00800059 256 μg/ml, mupirocin μg/ml: 1,0.5,0.25,0.125,0.0625,0.03125,0.015625,0", "result": 1.09},
      {"measurement": "optical density reading at 405 nm", "setting": "[1]; iso-sensitest broth, HT00800059 512 μg/ml, mupirocin μg/ml: 1,0.5,0.25,0.125,0.0625,0.03125,0.015625,0", "result": 0.36},
      {"measurement": "optical density reading at 405 nm", "setting": "[1]; iso-sensitest broth, HT00800059 1024 μg/ml, mupirocin μg/ml: 1,0.5,0.25,0.125,0.0625,0.03125,0.015625,0", "result": 0.36},
      {"measurement": "MIC before combination", "setting": "[1]; nutrient broth", "result": 512, "unit": "µg/mL"},
      {"measurement": "MIC post combination", "setting": "[1]; nutrient broth", "result": 64, "unit": "µg/mL"},
      {"measurement": "optical density reading at 405 nm", "setting": "[1]; nutrient broth, HT00800059 1 μg/ml, mupirocin μg/ml: 1,0.5,0.25,0.125,0.625 [sic],0.03125,0.15625 [sic],0", "result": 0.858},
      {"measurement": "optical density reading at 405 nm", "setting": "[1]; nutrient broth, HT00800059 2 μg/ml, mupirocin μg/ml: 1,0.5,0.25,0.125,0.625 [sic],0.03125,0.15625 [sic],0", "result": 0.884},
      {"measurement": "optical density reading at 405 nm", "setting": "[1]; nutrient broth, HT00800059 4 μg/ml, mupirocin μg/ml: 1,0.5,0.25,0.125,0.625 [sic],0.03125,0.15625 [sic],0", "result": 0.885},
      {"measurement": "optical density reading at 405 nm", "setting": "[1]; nutrient broth, HT00800059 8 μg/ml, mupirocin μg/ml: 1,0.5,0.25,0.125,0.625 [sic],0.03125,0.15625 [sic],0", "result": 0.867},
      {"measurement": "optical density reading at 405 nm", "setting": "[1]; nutrient broth, HT00800059 16 μg/ml, mupirocin μg/ml: 1,0.5,0.25,0.125,0.625 [sic],0.03125,0.15625 [sic],0", "result": 0.840},
      {"measurement": "optical density reading at 405 nm", "setting": "[1]; nutrient broth, HT00800059 32 μg/ml, mupirocin μg/ml: 1,0.5,0.25,0.125,0.625 [sic],0.03125,0.15625 [sic],0", "result": 0.759},
      {"measurement": "optical density reading at 405 nm", "setting": "[1]; nutrient broth, HT00800059 64 μg/ml, mupirocin μg/ml: 1,0.5,0.25,0.125,0.625 [sic],0.03125,0.15625 [sic],0", "result": 0.721},
      {"measurement": "optical density reading at 405 nm", "setting": "[1]; nutrient broth, HT00800059 128 μg/ml, mupirocin μg/ml: 1,0.5,0.25,0.125,0.625 [sic],0.03125,0.15625 [sic],0", "result": 0.528},
      {"measurement": "optical density reading at 405 nm", "setting": "[1]; nutrient broth, HT00800059 256 μg/ml, mupirocin μg/ml: 1,0.5,0.25,0.125,0.625 [sic],0.03125,0.15625 [sic],0", "result": 0.524},
      {"measurement": "optical density reading at 405 nm", "setting": "[1]; nutrient broth, HT00800059 512 μg/ml, mupirocin μg/ml: 1,0.5,0.25,0.125,0.625 [sic],0.03125,0.15625 [sic],0", "result": 0.284},
      {"measurement": "optical density reading at 405 nm", "setting": "[1]; nutrient broth, HT00800059 1024 μg/ml, mupirocin μg/ml: 1,0.5,0.25,0.125,0.625 [sic],0.03125,0.15625 [sic],0", "result": 0.291},
      {"measurement": "HT00800059 MIC in combination", "setting": "[1]; with mupirocin 0.125 μg/ml", "result": 64, "unit": "µg/mL"},
      {"measurement": "MIC", "setting": "[2]; [5]", "result": 512, "unit": "µg/mL"},
      {"measurement": "MIC before combination", "setting": "[2]; resistant strain 28 passages", "result": 512, "unit": "µg/mL"},
      {"measurement": "MIC post combination", "setting": "[2]; resistant strain 28 passages", "result": 64, "unit": "µg/mL"},
      {"measurement": "HT00800059 MIC in combination", "setting": "[2]; with mupirocin 32 μg/ml, 28 passages", "result": 64, "unit": "µg/mL"},
      {"measurement": "MIC", "setting": "[3]; [5]", "result": 512, "unit": "µg/mL"},
      {"measurement": "MIC before combination", "setting": "[3]; resistant strain 24 passages", "result": 512, "unit": "µg/mL"},
      {"measurement": "MIC post combination", "setting": "[3]; resistant strain 24 passages", "result": 64, "unit": "µg/mL"},
      {"measurement": "HT00800059 MIC in combination", "setting": "[3]; with mupirocin 8 μg/ml, 24 passages", "result": 64, "unit": "µg/mL"},
      {"measurement": "activity in vitro against a variety of log phase bacteria", "setting": "[4]", "result": "activity"}
    ]}
  ]
}
